Measurements as given in US20230278987A1, “Antimicrobial Compounds and Methods” (Curza Global, LLC, priority 2019, published 2023).
Converted amounts (≈) assume the structure as drawn. Counter-ions that a name gives are not always drawn. Like-named read-outs stand apart in the source and are kept apart here.

Assays:
S.aureus (Sa) = experiment: Broth microdilution MIC against S.aureus (Sa); format: cell-based; conditions: Staphylococcus aureus
Summary of the method: (§1)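 CLSI broth microdilution with 8 two-fold compound dilutions in cation-adjusted Mueller-Hinton broth, optionally supplemented with 6.25 or 25 mM sodium bicarbonate or 0–50% heat-inactivated human serum. Inoculum 5 × 10^4 CFU/well from 0.5 McFarland suspensions, tested in triplicate.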

E.coli (Ec) = experiment: Broth microdilution MIC against E.coli (Ec); format: cell-based; conditions: Escherichia coli
Summary of the method: as §1

P.aeruginosa (Pa) = experiment: Broth microdilution MIC against P.aeruginosa (Pa); format: cell-based; conditions: Pseudomonas aeruginosa
Summary of the method: as §1

A.baumannii (Ab) = experiment: Broth microdilution MIC against A.baumannii (Ab); format: cell-based; conditions: Acinetobacter baumannii
Summary of the method: as §1

E.faecalis (Ef) = experiment: Broth microdilution MIC against E.faecalis (Ef); format: cell-based; conditions: Enterococcus faecalis
Summary of the method: as §1

[1] = test system: E.coli S30 extract (bacterial protein synthesis); experiment: E.coli S30 extract: inhibition of bacterial protein synthesis (luciferase); format: biochemical; conditions: 37° C. for 1 hour
Summary of the method: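 E. coli S30 circular-DNA coupled transcription-translation of pBESTluc luciferase in presence of 2-fold serial compound dilutions (8 points). Incubated 1 h at 37 °C, stopped at 4 °C, then luminescence read. Percent inhibition versus no-inhibitor controls, with no-DNA background.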

[2] = target: Rabbit Reticulocyte Lysate (eukaryotic protein synthesis); experiment: Rabbit Reticulocyte Lysate: inhibition of eukaryotic protein synthesis (luciferase); format: biochemical; conditions: 30° C. for 90 minutes, read-out: retic. IC50
Summary of the method: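 Nuclease-treated rabbit reticulocyte lysate translating luciferase control RNA, incubated 90 min at 30° C with eight 2-fold compound dilutions. Luminescence measured after adding luciferase reagent; % inhibition relative to no-inhibitor wells, with no-RNA wells as background.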

[3] = CAMHB supplemented with sodium bicarbonate 6.25 mM, read-out: Sa + bicarb 6.25 (MIC)
[4] = CAMHB supplemented with sodium bicarbonate 6.25 mM, read-out: E. coli + bicarb 6.25 (MIC)
[5] = CAMHB supplemented with sodium bicarbonate 6.25 mM, read-out: Pa +bicarb 6.25 (MIC)
[6] = CAMHB supplemented with sodium bicarbonate 6.25 mM, read-out: Ab +bicarb 6.25 (MIC)
[7] = CAMHB supplemented with sodium bicarbonate 6.25 mM, read-out: Ef +bicarb 6.25 (MIC)
[8] = read-out: Sa + bicarb 6.25 (MIC)
[9] = read-out: E. coli + bicarb 6.25 (MIC)
[10] = read-out: Pa +bicarb 6.25 (MIC)
[11] = read-out: Ab +bicarb 6.25 (MIC)
[12] = read-out: Ef +bicarb 6.25 (MIC)

Compound	MIC (S.aureus (Sa); [3])	MIC (E.coli (Ec); [4])	MIC (P.aeruginosa (Pa); [5])	MIC (A.baumannii (Ab); [6])	MIC (E.faecalis (Ef); [7])	IC50 [1]	IC50 [2]	other results
CC(C)(N)C(=O)N1CCN(C(=O)Nc2ccn(-c3ccc4c(c3)CC(N[C@H]3CC[C@H](N)CC3)C4)c(=O)n2)CC1 (stereo partly drawn) [Compound 38, Hydrochloride Salt]	8 to 32 µg/mL	< 8 µg/mL	> 32 µg/mL	> 32 µg/mL	> 32 µg/mL	< 500 nM	≥ 1000 nM	–
CC(C)(N)C(=O)N1CCN(C(=O)Nc2ccn(-c3ccc4c(c3)CCC(N3CC(N)C3)C4)c(=O)n2)CC1 (stereo not drawn) [Compound 39]	8 to 32 µg/mL	8 to 32 µg/mL	> 32 µg/mL	> 32 µg/mL	> 32 µg/mL	500 to 1000 nM	≥ 1000 nM	–
CC(C)(N)C(=O)N1CCN(C(=O)Nc2ccn(-c3ccc4c(c3)CCC(N3CC(CN)C3)C4)c(=O)n2)CC1 (stereo not drawn) [Compound 40, Hydrochloride Salt]	< 8 µg/mL	< 8 µg/mL	> 32 µg/mL	> 32 µg/mL	8 to 32 µg/mL	< 500 nM	≥ 1000 nM	–
CC(C)(N)C(=O)N1CCN(C(=O)Nc2ccn(-c3ccc4c(c3)CCC(N3CCC(CCN)CC3)C4)c(=O)n2)CC1 (stereo not drawn) [Compound 42, 4-(2-Amino-2-methylpropanoyl)-N-(1-(6-(4-(2-aminoethyl)piperidin-1-yl)-5,6,7,8-tetrahydronaphthalen-2-yl)-2-oxo-1,2-dihydropyrimidin-4-yl)piperazine-1-carboxamide hydrochloride salt]	–	–	–	–	–	≥ 1000 nM	≥ 1000 nM	MIC (S.aureus (Sa); [8]): 8 to 32 µg/mL; MIC (E.coli (Ec); [9]): < 8 µg/mL; MIC (P.aeruginosa (Pa); [10]): > 32 µg/mL; MIC (A.baumannii (Ab); [11]): > 32 µg/mL; MIC (E.faecalis (Ef); [12]): > 32 µg/mL
CC(C)(N)C(=O)N1CCN(C(=O)Nc2ccn(-c3ccc4c(c3)CCC(N3CCCC(N)CC3)C4)c(=O)n2)CC1 (stereo not drawn) [Compound 43]	< 8 µg/mL	< 8 µg/mL	> 32 µg/mL	> 32 µg/mL	> 32 µg/mL	< 500 nM	≥ 1000 nM	MIC (S.aureus (Sa); CAMHB supplemented with sodium bicarbonate 25 mM, read-out: Sa + bicarb 25 (MIC)): < 8 µg/mL; MIC (E.coli (Ec); CAMHB supplemented with sodium bicarbonate 25 mM, read-out: E.coli + bicarb 25 (MIC)): < 8 µg/mL; MIC (P.aeruginosa (Pa); CAMHB supplemented with sodium bicarbonate 25 mM, read-out: Pa +bicarb 25 (MIC)): 8 to 32 µg/mL (≈ 14.5 to 58.1 µM); MIC (A.baumannii (Ab); CAMHB supplemented with sodium bicarbonate 25 mM, read-out: Ab +bicarb 25 (MIC)): 8 to 32 µg/mL (≈ 14.5 to 58.1 µM); MIC (E.faecalis (Ef); CAMHB supplemented with sodium bicarbonate 25 mM, read-out: Ef +bicarb 25 (MIC)): < 8 µg/mL
COC(=O)N[C@H]1CC[C@H](NC2CCc3cc(-n4ccc(NC(=O)N5CCN(C(=O)C(C)(C)N)CC5)nc4=O)ccc3C2)C1 (stereo partly drawn) [Compound 45, Methyl ((1S,3S)-3-((6-(4-(4-(2-amino-2-methylpropanoyl)piperazine-1-carboxamido)-2-oxopyrimidin-1(2H)-yl)-1,2,3,4-tetrahydronaphthalen-2-yl)amino)cyclopentyl)Carbamate Hydrochloride Salt]	–	–	–	–	–	≥ 1000 nM	≥ 1000 nM	MIC (S.aureus (Sa); [8]): > 32 µg/mL; MIC (E.coli (Ec); [9]): > 32 µg/mL; MIC (P.aeruginosa (Pa); [10]): > 32 µg/mL; MIC (A.baumannii (Ab); [11]): > 32 µg/mL; MIC (E.faecalis (Ef); [12]): > 32 µg/mL
CC(C)(N)C(=O)N1CCN(C(=O)Nc2ccn(-c3ccc4c(c3)CN([C@H]3CC[C@H](N)CC3)C4)c(=O)n2)CC1 [Compound 46, 4-(2-amino-2-methylpropanoyl)-N-(1-(2-((trans)-4-aminocyclohexyl)isoindolin-5-yl)-2-oxo-1,2-dihydropyrimidin-4-yl)piperazine-1-carboxamide hydrochloride salt]	–	–	–	–	–	< 500 nM	≥ 1000 nM	MIC (S.aureus (Sa); read-out: Sa + bicarb 25 (MIC)): < 8 µg/mL; MIC (E.coli (Ec); read-out: E.coli + bicarb 25 (MIC)): < 8 µg/mL; MIC (P.aeruginosa (Pa); read-out: Pa +bicarb 25 (MIC)): 8 to 32 µg/mL; MIC (A.baumannii (Ab); read-out: Ab +bicarb 25 (MIC)): 8 to 32 µg/mL; MIC (E.faecalis (Ef); read-out: Ef +bicarb 25 (MIC)): 8 to 32 µg/mL
